Reference: PubChem BioAssay (NCI)
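Each compound was tested at five concentrations against cells in 96-well plates for 48 hours. At the GI50, growth is halved. The concentration for full growth arrest is given as TGI.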

Tests used:
Experiment in all cases: NCI anticancer screen, dose series, 48 h
OVCAR-3 ovarian = system: OVCAR-3 ovarian
KM12 colon = system: KM12 colon
SF-295 CNS = system: SF-295 CNS
SK-MEL-5 melanoma = system: SK-MEL-5 melanoma
BT-549 breast = system: BT-549 breast
SF-268 CNS = system: SF-268 CNS
UO-31 renal = system: UO-31 renal
NCI-H226 lung = system: NCI-H226 lung
T-47D breast = system: T-47D breast
HS 578T breast = system: HS 578T breast

CC[C@@]1(OC(=O)CN)C(=O)OCc2c1cc1n(c2=O)Cc2c-1nc1cc3c(cc1c2CCl)OCO3
GI50 (OVCAR-3 ovarian): 0.372 µM | TGI (OVCAR-3 ovarian): 4.1 µM | GI50 (KM12 colon): 0.12 µM | TGI (KM12 colon): 0.39 µM | GI50 (SF-295 CNS): < 0.01 µM | TGI (SF-295 CNS): 11.2 µM | GI50 (SK-MEL-5 melanoma): < 0.0118 µM | TGI (SK-MEL-5 melanoma): 0.5 µM | GI50 (BT-549 breast): 0.0918 µM | TGI (BT-549 breast): 2.54 µM | GI50 (SF-268 CNS): < 0.01 µM | TGI (SF-268 CNS): 0.516 µM | GI50 (UO-31 renal): < 0.01 µM | TGI (UO-31 renal): 1.44 µM | GI50 (NCI-H226 lung): 0.0201 µM | TGI (NCI-H226 lung): 0.397 µM | GI50 (T-47D breast): < 0.01 µM | TGI (T-47D breast): 7.79 µM | GI50 (HS 578T breast): 0.762 µM | TGI (HS 578T breast): 5.5 µM

O=C1C2=C(C(=O)c3cnccc31)C1C=CC2CC1 (stereo not given)
GI50 (OVCAR-3 ovarian): 1.85 µM | TGI (OVCAR-3 ovarian): 3.66 µM | GI50 (KM12 colon): 2.65 µM | TGI (KM12 colon): 6.66 µM | GI50 (SF-295 CNS): 5.36 µM | TGI (SF-295 CNS): 12.4 µM | GI50 (SK-MEL-5 melanoma): 1.84 µM | TGI (SK-MEL-5 melanoma): 3.85 µM | GI50 (BT-549 breast): 5.86 µM | TGI (BT-549 breast): 10.3 µM | GI50 (SF-268 CNS): 1.9 µM | TGI (SF-268 CNS): 3.84 µM | GI50 (UO-31 renal): 1.95 µM | TGI (UO-31 renal): 3.69 µM | GI50 (NCI-H226 lung): 5.74 µM | TGI (NCI-H226 lung): 16.2 µM | GI50 (T-47D breast): 0.374 µM | TGI (T-47D breast): 1.5 µM | GI50 (HS 578T breast): 2.77 µM | TGI (HS 578T breast): 6.6 µM

[O-][N+]1(CC[N+]2([O-])CCCCC2)CCCCC1
TGI (OVCAR-3 ovarian): > 100 µM | TGI (KM12 colon): > 100 µM | TGI (SF-295 CNS): > 100 µM | TGI (SK-MEL-5 melanoma): > 100 µM | TGI (BT-549 breast): > 100 µM | TGI (SF-268 CNS): > 100 µM | TGI (UO-31 renal): > 100 µM | TGI (NCI-H226 lung): > 100 µM | TGI (T-47D breast): > 100 µM | TGI (HS 578T breast): > 100 µM

c1cc(-c2nnc(SSc3ncnc4nc[nH]c34)o2)ccn1
GI50 (OVCAR-3 ovarian): 0.319 µM | TGI (OVCAR-3 ovarian): 1.73 µM | GI50 (KM12 colon): 2.61 µM | TGI (KM12 colon): > 100 µM | GI50 (SF-295 CNS): 0.51 µM | TGI (SF-295 CNS): 12.8 µM | GI50 (SK-MEL-5 melanoma): 3.46 µM | TGI (SK-MEL-5 melanoma): > 100 µM | GI50 (BT-549 breast): 9.47 µM | TGI (BT-549 breast): > 100 µM | GI50 (SF-268 CNS): 2.18 µM | TGI (SF-268 CNS): > 100 µM | GI50 (UO-31 renal): 0.742 µM | TGI (UO-31 renal): > 100 µM | GI50 (NCI-H226 lung): 4.63 µM | TGI (NCI-H226 lung): > 100 µM | GI50 (T-47D breast): 0.467 µM | TGI (T-47D breast): > 100 µM | GI50 (HS 578T breast): 2.56 µM | TGI (HS 578T breast): > 100 µM

CN1CCN(Cc2ccc(NC(=O)c3cncc(C#Cc4cnc(N)cc4C#N)c3)cc2C(F)(F)F)CC1
GI50 (OVCAR-3 ovarian): 4.88 µM | TGI (OVCAR-3 ovarian): 20.4 µM | GI50 (KM12 colon): 0.0632 µM | TGI (KM12 colon): 13.3 µM | GI50 (SF-295 CNS): 3.54 µM | TGI (SF-295 CNS): 15.3 µM | GI50 (SK-MEL-5 melanoma): 2.29 µM | TGI (SK-MEL-5 melanoma): 7.11 µM | GI50 (BT-549 breast): 4.25 µM | TGI (BT-549 breast): 16.8 µM | GI50 (SF-268 CNS): 3.7 µM | TGI (SF-268 CNS): 19.2 µM | GI50 (UO-31 renal): 2 µM | TGI (UO-31 renal): 6.95 µM | GI50 (NCI-H226 lung): 0.706 µM | TGI (NCI-H226 lung): 11.9 µM | GI50 (T-47D breast): 4.42 µM | TGI (T-47D breast): 21.1 µM | GI50 (HS 578T breast): 1.46 µM | TGI (HS 578T breast): 7.46 µM

CN(C)c1ccc(/C=C2\N=C(c3ccccc3)N(c3cc(C(F)(F)F)ccc3Cl)C2=O)cc1
GI50 (OVCAR-3 ovarian): > 78.5 µM | TGI (OVCAR-3 ovarian): > 100 µM | GI50 (KM12 colon): > 100 µM | TGI (KM12 colon): > 100 µM | GI50 (SF-295 CNS): > 100 µM | TGI (SF-295 CNS): > 100 µM | GI50 (SK-MEL-5 melanoma): > 100 µM | TGI (SK-MEL-5 melanoma): > 100 µM | GI50 (BT-549 breast): > 100 µM | TGI (BT-549 breast): > 100 µM | GI50 (SF-268 CNS): > 100 µM | TGI (SF-268 CNS): > 100 µM | GI50 (UO-31 renal): > 100 µM | TGI (UO-31 renal): > 100 µM | GI50 (NCI-H226 lung): > 90.4 µM | TGI (NCI-H226 lung): > 100 µM | GI50 (T-47D breast): > 100 µM | TGI (T-47D breast): > 100 µM | GI50 (HS 578T breast): > 100 µM | TGI (HS 578T breast): > 100 µM
